From the supplement of paper PMC10307832

How the values were obtained:
Assay in all cases: relative viability (nuclei count vs DMSO), 5 days (fraction); higher = more cells survive
HOP-62 = settings: first compound 0.5 µM
Outline: (§1)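 Relative viability divides the nuclei count in treated wells by that in vehicle wells. Lung cancer cell lines were seeded in 1536-well plates, dosed by pin tool the next day, and fixed and stained after 5 days in one step with final 0.05% Triton X-100, 1% formaldehyde and 1 ug/ml Hoechst. Dosing was a single drug or a fixed anchor-drug dose plus five library-drug doses (not always all listed) in √10 steps, and values are medians of duplicate plates imaged at 4×.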

NCI-H322M = system: NCI-H322M
Outline: as §1

NCI-H2170 = system: NCI-H2170
Outline: as §1

PC-3 [JPC-3] = system: PC-3 [JPC-3]
Outline: as §1

NCI-H1792 = system: NCI-H1792
Outline: as §1

SW 1573 = system: SW 1573
Outline: as §1

LXF-289 = system: LXF-289
Outline: as §1

NCI-H2009 = system: NCI-H2009
Outline: as §1

SK-MES-1 = system: SK-MES-1
Outline: as §1

NCI-H522 = system: NCI-H522
Outline: as §1

A-427 = system: A-427
Outline: as §1

NCI-H727 = system: NCI-H727
Outline: as §1

## Nc1ccn([C@@H]2O[C@H](CO)[C@@H](O)[C@@H]2O)c(=O)n1 [Cytarabine] + O=C(c1cc(Cc2n[nH]c(=O)c3ccccc23)ccc1F)N1CCN(C(=O)C2CC2)CC1 [Olaparib] (partner 8 µM)
HOP-62
  relative viability: 0.0414
NCI-H322M; first compound 0.005 µM
  relative viability: 0.773
NCI-H322M; first compound 0.01581 µM
  relative viability: 0.695
NCI-H322M; first compound 0.05 µM
  relative viability: 0.467
NCI-H322M; first compound 0.1581 µM
  relative viability: 0.469
NCI-H322M; first compound 0.5 µM
  relative viability: 0.351
NCI-H2170; first compound 0.005 µM
  relative viability: 0.544
NCI-H2170; first compound 0.01581 µM
  relative viability: 0.47
NCI-H2170; first compound 0.05 µM
  relative viability: 0.408
NCI-H2170; first compound 0.1581 µM
  relative viability: 0.265
NCI-H2170; first compound 0.5 µM
  relative viability: 0.23
PC-3 [JPC-3]; first compound 0.005 µM
  relative viability: 0.508
PC-3 [JPC-3]; first compound 0.01581 µM
  relative viability: 1.09
PC-3 [JPC-3]; first compound 0.05 µM
  relative viability: 0.971
PC-3 [JPC-3]; first compound 0.1581 µM
  relative viability: 0.682
PC-3 [JPC-3]; first compound 0.5 µM
  relative viability: 0.617
NCI-H1792; first compound 0.01581 µM
  relative viability: 0.399
NCI-H1792; first compound 0.05 µM
  relative viability: 0.248
NCI-H1792; first compound 0.1581 µM
  relative viability: 0.167
NCI-H1792; first compound 0.5 µM
  relative viability: 0.0776
SW 1573; first compound 0.005 µM
  relative viability: 0.513
SW 1573; first compound 0.01581 µM
  relative viability: 0.329
SW 1573; first compound 0.05 µM
  relative viability: 0.384
SW 1573; first compound 0.1581 µM
  relative viability: 0.166
SW 1573; first compound 0.5 µM
  relative viability: 0.108
LXF-289; first compound 0.005 µM
  relative viability: 0.904
LXF-289; first compound 0.01581 µM
  relative viability: 0.829
LXF-289; first compound 0.05 µM
  relative viability: 0.709
LXF-289; first compound 0.1581 µM
  relative viability: 0.285
LXF-289; first compound 0.5 µM
  relative viability: 0.232
NCI-H2009; first compound 0.005 µM
  relative viability: 0.744
NCI-H2009; first compound 0.01581 µM
  relative viability: 0.752
NCI-H2009; first compound 0.05 µM
  relative viability: 0.724
NCI-H2009; first compound 0.1581 µM
  relative viability: 0.644
NCI-H2009; first compound 0.5 µM
  relative viability: 0.202
SK-MES-1; first compound 0.005 µM
  relative viability: 0.619
SK-MES-1; first compound 0.01581 µM
  relative viability: 0.527
SK-MES-1; first compound 0.05 µM
  relative viability: 0.313
SK-MES-1; first compound 0.1581 µM
  relative viability: 0.173
SK-MES-1; first compound 0.5 µM
  relative viability: 0.183
NCI-H522; first compound 0.005 µM
  relative viability: 0.654
NCI-H522; first compound 0.01581 µM
  relative viability: 0.602
NCI-H522; first compound 0.05 µM
  relative viability: 0.813
NCI-H522; first compound 0.1581 µM
  relative viability: 0.545
NCI-H522; first compound 0.5 µM
  relative viability: 0.426
A-427; first compound 0.005 µM
  relative viability: 0.479
A-427; first compound 0.01581 µM
  relative viability: 0.551
A-427; first compound 0.05 µM
  relative viability: 0.304
A-427; first compound 0.1581 µM
  relative viability: 0.223
A-427; first compound 0.5 µM
  relative viability: 0.253
NCI-H727; first compound 0.005 µM
  relative viability: 0.659
NCI-H727; first compound 0.01581 µM
  relative viability: 0.541
NCI-H727; first compound 0.05 µM
  relative viability: 0.679
NCI-H727; first compound 0.1581 µM
  relative viability: 0.542
NCI-H727; first compound 0.5 µM
  relative viability: 0.566
